IC50 data for 21 compounds are collected here from patent US20230310445A1, “LOX ENZYME INHIBITING METHODS AND COMPOSITIONS” (ANOVIA BIOSCIENCES, INC., priority 2020, published 2023).

This assay addresses T1, Bovine lysyl oxidase (LOX) (Bos taurus, UniProt P33072).
T1 construct: from tissue; host or cells: adult bovine tendon
T1 sequence (P33072 170-418): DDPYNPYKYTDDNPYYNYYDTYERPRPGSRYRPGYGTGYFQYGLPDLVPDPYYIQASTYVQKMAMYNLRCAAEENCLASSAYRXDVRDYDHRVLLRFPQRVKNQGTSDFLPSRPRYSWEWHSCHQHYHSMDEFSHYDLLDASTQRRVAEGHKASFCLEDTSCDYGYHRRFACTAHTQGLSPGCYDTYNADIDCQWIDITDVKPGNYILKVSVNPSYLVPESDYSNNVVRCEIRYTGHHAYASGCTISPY
As to the kind of experiment: LOX inhibition assay (fluorometric, cadaverine/Amplex Red/HRP). It counts as biochemical. As to conditions: IC50 class; bovine tendon LOX, cadaverine substrate; read-out: Activity Range LOX. The gist of the method: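 Bovine tendon-extracted LOX was preincubated 30 min at 37 °C with compound. Cadaverine/Amplex Red/HRP was then added and fluorescence (ex530/em600) monitored for 120 min at 37 °C. Progress-curve slopes, background-subtracted against no-protein wells, were normalised to DMSO controls and fitted with a four-parameter variable-slope dose-response model.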
As for `CS(=O)(=O)[C@H]1C[C@@H](S(=O)(=O)c2cccc(CN)c2)CN(c2ccccc2)C1` (racemic) [Example 23, cis-(3-((-5-(Methylsulfonyl)-1-phenylpiperidin-3-yl)sulfonyl)phenyl)methanamine], the IC50 is more than 30 µM.

Take `CS(=O)(=O)N1C[C@H](Oc2cccc(CN)c2)C[C@H](c2ccccc2F)C1` (racemic) [Example 70, cis-(3-((5-(2-Fluorophenyl)-1-(methylsulfonyl)piperidin-3-yl)oxy)phenyl)methanamine 2,2,2-trifluoroacetate]: the IC50 is more than 30 µM.

`CN(C)C(=O)N1C[C@@H](c2ccccc2)C[C@@H](S(=O)(=O)c2cccc(CN)c2)C1.O=C(O)C(F)(F)F` (racemic) [Example 74, cis-3-((3-(Aminomethyl)phenyl)sulfonyl)-N,N-dimethyl-5-phenylpiperidine-1-carboxamide 2,2,2-trifluoroacetate]: the IC50 is more than 30 µM.

As for `NCc1ccc(S(=O)(=O)N2C[C@H](C(=O)N3CCS(=O)(=O)CC3)C[C@@H](c3ccccc3)C2)s1.O=C(O)C(F)(F)F` (racemic) [Example 75B, trans-(1-((5-(Aminomethyl)thiophen-2-yl)sulfonyl)-5-phenylpiperidin-3-yl)(1,1-dioxidothiomorpholino)methanone 2,2,2-trifluoroacetate], the IC50 is not above 0.5 µM.

For `CS(=O)(=O)[C@@H]1C[C@@H](S(=O)(=O)c2cccc(CN)c2)CN(c2ccccc2)C1` (racemic) [Example 79, trans-(3-((-5-(Methylsulfonyl)-1-phenylpiperidin-3-yl)sulfonyl)phenyl)methanamine], the IC50 was more than 30 µM.

Regarding `NCc1cccc(S(=O)(=O)N2C[C@H](C(=O)N3CCS(=O)(=O)CC3)C[C@@H](c3ccccc3)C2)c1` (racemic) [Example 85, trans-(1-((3-(Aminomethyl)phenyl)sulfonyl)-5-phenylpiperidin-3-yl)(1,1-dioxidothiomorpholino)methanone 2,2,2-trifluoroacetate], the IC50 was more than 30 µM.

In the case of `CS(=O)(=O)N1CCN(C(=O)[C@H]2C[C@@H](c3ccccc3F)CN(S(=O)(=O)c3ccc(CN)s3)C2)CC1.O=C(O)C(F)(F)F` (racemic) [Example 91, cis-(1-((5-(Aminomethyl)thiophen-2-yl)sulfonyl)-5-(2-fluorophenyl)piperidin-3-yl)(4-(methylsulfonyl)piperazin-1-yl)methanone 2,2,2-trifluoroacetate], the IC50 is not above 0.5 µM.

Turning to `CS(=O)(=O)[C@H]1C[C@@H](S(=O)(=O)c2cccc(CN)c2)CN(c2ccccc2F)C1` (racemic) [Example 92, cis-(3-((-1-(2-Fluorophenyl)-5-(methylsulfonyl)piperidin-3-yl)sulfonyl)phenyl)methanamine 2,2,2-trifluoroacetate], the IC50 is more than 30 µM.

On to `NCc1cccc(S(=O)(=O)N2C[C@H](C(=O)N3CCS(=O)(=O)CC3)C[C@@H](c3ccccc3)C2)n1` (racemic) [Example 115T, trans-(1-((6-(Aminomethyl)pyridin-2-yl)sulfonyl)-5-phenylpiperidin-3-yl)(1,1-dioxidothiomorpholino)methanone 2,2,2-trifluoroacetate], for which the IC50 was more than 30 µM.

As for `NCc1ccc(S(=O)(=O)N2C[C@@H](C(=O)N3CCOCC3)C[C@@H](C3CCCCC3)C2)s1.O=C(O)C(F)(F)F` (racemic) [Example 120, cis-(1-((5-(Aminomethyl)thiophen-2-yl)sulfonyl)-5-cyclohexylpiperidin-3-yl)(morpholino)methanone 2,2,2-trifluoroacetate], the IC50 is not above 0.5 µM.

With `NCc1ccnc(S(=O)(=O)N2C[C@@H](C(=O)N3CCS(=O)(=O)CC3)C[C@@H](c3ccccc3)C2)c1` (racemic) [Example 134, cis-(1-((4-(Aminomethyl)pyridin-2-yl)sulfonyl)-5-phenylpiperidin-3-yl)(1,1-dioxidothiomorpholino)methanone 2,2,2-trifluoroacetate], the IC50 lay within 1 to 30 µM.

With `NCc1cccc(S(=O)(=O)N2C[C@@H](C(=O)N3CCOCC3)C[C@@H](C3CCCCC3)C2)c1` (racemic) [Example 139, cis-(1-((3-(Aminomethyl)phenyl)sulfonyl)-5-cyclohexylpiperidin-3-yl)(morpholino)methanone], the IC50 is more than 30 µM.

As for `NCc1cccc(S(=O)(=O)N2C[C@@H](C(=O)N3CCS(=O)(=O)CC3)C[C@@H](C3CCCCC3)C2)c1` (racemic) [Example 140, cis-(1-((3-(Aminomethyl)phenyl)sulfonyl)-5-cyclohexylpiperidin-3-yl)(1,1-dioxidothiomorpholino)methanone], the IC50 is more than 30 µM.

On to `CN(C)C(=O)[C@H]1C[C@@H](C2CCCCC2)CN(S(=O)(=O)c2cc(CN)ccn2)C1` (racemic) [Example 144, cis-1-((4-(Aminomethyl)pyridin-2-yl)sulfonyl)-5-cyclohexyl-N,N-dimethylpiperidine-3-carboxamide 2,2,2-trifluoroacetate], for which the IC50 is 1 to 30 µM.

Regarding `NCc1ccnc(S(=O)(=O)N2C[C@@H](C(=O)N3CCOCC3)C[C@@H](C3CCCCC3)C2)c1` (racemic) [Example 145, cis-(1-((4-(Aminomethyl)pyridin-2-yl)sulfonyl)-5-cyclohexylpiperidin-3-yl)(morpholino)methanone 2,2,2-trifluoroacetate], the IC50 lay in the range of 1 to 30 µM.

For the compound `NCc1ccnc(S(=O)(=O)N2C[C@@H](C(=O)N3CCS(=O)(=O)CC3)C[C@@H](C3CCCCC3)C2)c1.O=C(O)C(F)(F)F` (racemic) [Example 146, cis-(1-((4-(Aminomethyl)pyridin-2-yl)sulfonyl)-5-cyclohexylpiperidin-3-yl)(1,1-dioxidothiomorpholino)methanone 2,2,2-trifluoroacetate], the IC50 lay within 1 to 30 µM.

As for `NCc1ccnc(S(=O)(=O)N2C[C@@H](C(=O)N3CCOCC3)C[C@@H](c3ccccc3)C2)c1` (relative stereo) [Example 133, cis-(1-((4-(Aminomethyl)pyridin-2-yl)sulfonyl)-5-phenylpiperidin-3-yl)(morpholino)methanone 2,2,2-trifluoroacetate], the IC50 was 1 to 30 µM.

`CN(C)C(=O)[C@H]1C[C@@H](C2CCCCC2)CN(S(=O)(=O)c2cccc(CN)c2)C1` (relative stereo) [Example 138, cis-1-((3-(Aminomethyl)phenyl)sulfonyl)-5-cyclohexyl-N,N-dimethylpiperidine-3-carboxamide 2,2,2-trifluoroacetate]: the IC50 was more than 30 µM.

With `NCc1ccc(S(=O)(=O)N2C[C@H](C(=O)N3CCOCC3)C[C@H](c3ccccc3)C2)s1` [Example 13B, ((3R,5R)-1-((5-(aminomethyl)thiophen-2-yl)sulfonyl)-5-phenylpiperidin-3-yl)(morpholino)methanone], the IC50 was not above 0.5 µM.

Turning to `NCc1ccnc(S(=O)(=O)N2C[C@@H](C(=O)N3CCOCC3)C[C@@H](c3ccccc3)C2)c1` [Example 133A, ((3S,5S)-1-((4-(aminomethyl)pyridin-2-yl)sulfonyl)-5-phenylpiperidin-3-yl)(morpholino)methanone 2,2,2-trifluoroacetate], the IC50 fell in the range of 1 to 30 µM.

As to `NCc1ccnc(S(=O)(=O)N2C[C@H](C(=O)N3CCOCC3)C[C@H](c3ccccc3)C2)c1` [Example 133B, ((3R,5R)-1-((4-(aminomethyl)pyridin-2-yl)sulfonyl)-5-phenylpiperidin-3-yl)(morpholino)methanone 2,2,2-trifluoroacetate], the IC50 is 1 to 30 µM.
